# According to ChEMBL document CHEMBL2412991, “Catalytic asymmetric total synthesis of (S)-(-)-zearalenone, a novel lipoxygenase inhibitor” (Bioorg Med Chem, 2013):
# Target: T1, Seed linoleate 13S-lipoxygenase-1 (Glycine max, UniProt P08170)
# T1 sequence (P08170 whole entry): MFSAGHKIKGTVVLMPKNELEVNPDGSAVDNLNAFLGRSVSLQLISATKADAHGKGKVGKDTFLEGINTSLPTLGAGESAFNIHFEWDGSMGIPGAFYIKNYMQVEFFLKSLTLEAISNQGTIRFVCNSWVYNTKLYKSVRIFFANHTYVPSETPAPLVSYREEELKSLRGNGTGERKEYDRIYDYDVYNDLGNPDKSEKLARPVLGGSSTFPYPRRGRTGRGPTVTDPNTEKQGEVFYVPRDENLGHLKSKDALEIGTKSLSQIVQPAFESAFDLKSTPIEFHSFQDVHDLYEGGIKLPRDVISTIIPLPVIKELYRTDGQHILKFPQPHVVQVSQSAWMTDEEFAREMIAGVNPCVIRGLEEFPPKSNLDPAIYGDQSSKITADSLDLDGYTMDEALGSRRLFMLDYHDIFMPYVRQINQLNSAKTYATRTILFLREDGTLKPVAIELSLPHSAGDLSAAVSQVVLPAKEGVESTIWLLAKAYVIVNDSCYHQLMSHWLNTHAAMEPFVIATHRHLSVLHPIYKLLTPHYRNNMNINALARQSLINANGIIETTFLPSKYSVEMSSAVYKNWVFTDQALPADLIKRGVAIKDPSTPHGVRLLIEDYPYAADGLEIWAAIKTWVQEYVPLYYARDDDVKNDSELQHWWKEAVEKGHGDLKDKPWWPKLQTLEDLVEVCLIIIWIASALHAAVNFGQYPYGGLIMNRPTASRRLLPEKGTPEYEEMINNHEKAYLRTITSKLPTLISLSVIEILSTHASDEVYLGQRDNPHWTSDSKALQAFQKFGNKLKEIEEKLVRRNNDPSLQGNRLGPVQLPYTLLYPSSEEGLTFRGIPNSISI
# Assay: Inhibition of soybean lipoxygenase-1 assessed as inhibition of conversion of linoleic acid into hydroperoxy […] acid preincubated for 10 mins before substrate addition measured over 20 mins by spectrophotometric assay
smiles,measurement,value
C[C@H]1CCCC(=O)CCC/C=C/c2cc(O)cc(O)c2C(=O)O1 [ZEARALENONE],IC50,51 µM
